Measured values published in paper PMC12593371, “Whole-Body Disposition and Metabolism of [^14C]-2,4,4′-Trichlorobiphenyl (PCB28) Following Lung Administration in Rats” (Environmental Science & Technology, 2025).

Experiments:
[1] = design: method as in our prior study (number not given); conditions: acute inhalation exposure to a PCB mixture, estimated dose 40 μg/rat; ref our prior study (number not given); cited from earlier work
[2] = design: method as in previously reported (number not given); conditions: oral exposure to a PCB mixture; ref previously reported (number not given); cited from earlier work
[3] = Mass balance and whole-body tissue distribution of radioactivity after intratracheal [14C]-PCB28; type: in vivo, Male Sprague–Dawley rats; conditions: for contribution of adipose tissue to total radioactivity: 720 min; for share of the remaining radioactivity: 12 min
Source text: (§1) Male Sprague–Dawley rats (8 weeks old) weighing 230–285 g (mean of 256 g) were used in this study (Envigo, Indianapolis, IN). Male rats were selected to maintain consistency with previous toxicokinetic investigations of lower-chlorinated PCBs, specifically the study on intratracheally instilled ^14C-labeled dichlorinated PCB11, which also utilized male rats. This approach facilitated direct comparison across studies and contributed to a more comprehensive toxicokinetic data set for LC-PCBs following inhalation exposure. A PCB toxicokinetic study being published separately investigated placental transfer and fetal uptake in pregnant females. All animals were handled in compliance with an approved Institutional Animal Care and Use Committee protocol (protocol#: 3091097 approved on 10/12/2023). Rats were pair-housed in a light and temperature-controlled environment with access to food and water ad libitum. After 1 week of acclimatization, rats were assigned to either a high-dose (HD) group (n = 9) or a low-dose (LD) group (n = 5) at random. Control rats (n = 3) were exposed to a single dose of unlabeled PCB28 (42 μg in 200 μL) and necropsied 50 min after exposure to establish background levels for radioactivity calculations in blank tissues. […] Therefore, animal numbers were customized between groups to most efficiently utilize the limited available ^14C-PCB28 stock in our lab.
(§2) Animals in the HD group were intratracheally (i.t.) administered 42 μg of a one-time single dose of [^14C]-PCB28 in 200 μL of vehicle, while animals in the LD group received 4.2 μg of [^14C]-PCB28 in 100 μL of vehicle. The i.t. route for dosing was selected due to the limited availability and extraordinary cost of the radiolabeled PCB28, and to avoid ^14C contamination of the inhalation exposure apparatus. All i.t. instillation was performed under light anesthesia (4% isoflurane via a precision vaporizer Fortec, Cyprane, Keighley, UK). Rats recovered from the anesthesia within 2 min while held within a cylindrical glass chamber (2 L), equipped with drainage ports to facilitate urine collection and a metallic screen to segregate urine from feces (as illustrated in Figure S1). Air was drawn from the chamber at 6.0 L/min through a cartridge containing XAD-2 polymeric resin (Amberlite, Millipore Sigma, Burlington, MA) to capture any exhaled [^14C]-PCB28. For the longer time points (720 and 1440 min), individual rats were placed in metabolic cages following a similar protocol for excreta and exhaled breath collection. After exposure, the inner walls of the chamber were rinsed separately with water, acetone, and hexane (25 – 45 mL) and wiped to measure radioactivity. Rat fur was also wiped and analyzed for radioactivity. The rats exposed to the HD were euthanized using isoflurane and exsanguination via cardiac puncture at 12, 25, 50, 100, 200, 400, 720, and 1440 min postexposure (n = 1 per time point except n = 2 for 200 min). Animals exposed to the LD were similarly necropsied at time points of 2, 12, 50, 200, and 720 min postexposure (n = 2). Euthanasia was consistently performed during the light cycle, except in the case of the 720 min time point, wherein euthanasia occurred outside the light cycle.
Serum and blood cells were separated. Two to six technical replicates were collected from 36 tissue types and digestive matter (diluted in ultrapure water) from 5 different GI tract locations. Muscle and adipose tissue samples were obtained from various locations. The collected tissue samples were placed in scintillation vials containing 1 mL of solvable cocktail and kept at 37 °C overnight for complete solubilization. To enable subsequent analyses, the solubilized tissue samples underwent a 2-h heating phase at 50 °C. For the bone, feces, and digestive matter, 1 mL of isopropyl alcohol was added. For samples displaying darker coloration, a controlled volume of 30% hydrogen peroxide (100 to 300 μL) was slowly added in increments to remove potential interference. […]

[4] = Toxicokinetic parameters by noncompartmental analysis after intratracheal administration of [14C]-PCB28; type: in vivo, Male Sprague–Dawley rats
Source text: as §1
as §2, with “Rats recovered from the anesthesia within 2 min while held within a cylindrical glass chamber (2 L), equipped with drainage ports to facilitate urine collection and a metallic screen to segregate urine from feces (as illustrated in Figure S1).” left out, “Animals exposed to the LD were similarly necropsied at time points of 2, 12, 50, 200, and 720 min postexposure (n = 2).” left out
Serum and blood cells were separated. Two to six technical replicates were collected from 36 tissue types and digestive matter (diluted in ultrapure water) from 5 different GI tract locations. Muscle and adipose tissue samples were obtained from various locations. The collected tissue samples were placed in scintillation vials containing 1 mL of solvable cocktail and kept at 37 °C overnight for complete solubilization. To enable subsequent analyses, the solubilized tissue samples underwent a 2-h heating phase at 50 °C. For the bone, feces, and digestive matter, 1 mL of isopropyl alcohol was added. For samples displaying darker coloration, a controlled volume of 30% hydrogen peroxide (100 to 300 μL) was slowly added in increments to remove potential interference.

[5] = Fractionation of parent PCB28 and metabolites in serum, liver, adipose and kidney (liquid scintillation counting); type: in vivo, Male Sprague–Dawley rats; conditions: for peak concentration of parent compound in serum: 12 min
Experimental: as §2
Extractions of parent PCB28 and its hydroxylated, methyl sulfone, and conjugated metabolites in serum, liver, adipose, and kidney samples were conducted using our previous protocol. Individual extractable metabolites were separated using a series of liquid–liquid extractions, employing a graded array of solvents with increasing polarity to facilitate the partitioning of the analytes according to their inherent lipophilic characteristics (Figure S2). Subsequently, individual fractions were classified into respective categories, including the native PCB moiety, hydroxylated PCB (OH-PCB), methyl sulfonyl-PCB (MeSO2-PCB), conjugated metabolites, and unextractable components. Analytical recoveries were quantified for each extraction and separation step. Tissue samples (200–400 mg wet weight) were prepared for analysis in a two-step homogenization process using 2 mL of hexane/acetone solvent (50:50, vol/vol). The resultant solution was centrifuged, and then the pellet underwent two successive extractions with 1.5 mL of dichloromethane (DCM), chloroform/methanol (50:50 vol/vol), methanol/water (50:50 vol/vol), and water, respectively. […] The residual hydrophobic phase was quantified as native PCB28. The quantification of unlabeled PCB28, OH-PCBs (as MeO-PCB derivatives), and MeSO2–PCBs in standards spiked samples was performed on a gas chromatograph (Agilent 6890N) equipped with a ^63Ni μ-ECD detector and SLB-5MS capillary column (60 m × 0.25 mm I.D., 0.25 μm film thickness; Supelco, St Louis, MO). […]

In the case of `Clc1cccc(-c2cccc(Cl)c2)c1` [PCB11], the serum elimination half-life [1] is listed as 11.5 h.
In the case of `Clc1ccc(-c2ccc(Cl)cc2Cl)cc1` [PCB28, 2,4,4′-trichlorobiphenyl], the “time of peak adipose concentration” value [2] is given as 24 h, the “contribution of adipose tissue to total radioactivity” value ([3]; high dose) is given as 30% and the “contribution of adipose tissue to total radioactivity” value ([3]; low dose) is given as 28%. For the same molecule, the “share of the retained radioactivity sequestered in skin and adipose tissue” value ([3]; 24 h) was 67–77%, the “total radioactivity remaining within the body” value ([3]; 24 h) was 88–92% and the “administered dose excreted via urine and feces” value ([3]; 24 h study) was “less than 4%”. The “retention in the body or apparent bioavailability using fecal excretion” value ([3]; 24 h study) was 92%, the “increase of adipose [14C] concentration throughout the entire time course” value ([3]; high dose) was 6.5 fold and the “increase of adipose [14C] concentration throughout the entire time course” value ([3]; low dose) was 21 fold. The “reduction of quantified radioactivity between 12 and 50 min” value (shortened to “reduction”) ([3]; blood) was 37–67%, the “total radioactivity excreted in the feces” value ([3]; by the end of the 24 h study period / at any time point) was “no more than 4%” and the “time of peak concentration” value ([3]; duodenum digestive matter, both doses) was 50 min. The apparent bioavailability ([3]; from fecal excretion, 24 h) was “up to 96%”, the “nominal recovered radioactivity of the administered dose in the collected tissues” value ([3]; high dose (42 μg i.t.)) was 83 ± 5% and the “exhaled breath, share of the total recovered radioactivity” value ([3]; intratracheal dosing) was 0.07 ± 0.04%. For the same molecule, the pulmonary uptake ([3]; intratracheal lung dosing) was 99.9 ± 3.5%, the “reduction” value ([3]; kidney) was 36–69% and the “reduction” value ([3]; liver) was 41–58%. The “share of the remaining radioactivity” value ([3]; liver, high dose) was 16.8%, the “share of the remaining radioactivity” value ([3]; liver, low dose) was 20.6% and the “nominal recovered radioactivity of the administered dose in the collected tissues” value ([3]; low dose (4.2 μg i.t.)) was 74 ± 13%. The “reduction” value ([3]; lung) was 56–73%, the “share of the remaining radioactivity” value ([3]; muscle plus liver, high dose) was ~52.1% and the “share of the remaining radioactivity” value ([3]; muscle, high dose) was 35.3%. The “share of the remaining radioactivity” value ([3]; pulmonary regions, low dose) was 16.7%, the “more radioactivity retained in serum at the low dose than at the high dose” value ([3]; serum, same time point) was 92% and the “time of peak radioactivity” value ([3]; stomach matter) was 50 min. For the same molecule, the “AUC, high dose compared to low dose” value ([4]; adipose tissue) was 18.7 fold, the C24 ([4]; adipose, high dose (42 μg i.t.)) was 385 dpm/mg and the C24 ([4]; adipose, low dose (4.2 μg i.t.)) was 63.7 dpm/mg. It also gave a C24 ([4]; bladder, high dose (42 μg i.t.)) of 8.0 dpm/mg, a C24 ([4]; bladder, low dose (4.2 μg i.t.)) of 6.4 dpm/mg and a C24 ([4]; brain, high dose (42 μg i.t.)) of 11.0 dpm/mg. The C24 ([4]; brain, low dose (4.2 μg i.t.)) was 2.4 dpm/mg, the C24 ([4]; bronchi, high dose (42 μg i.t.)) was 205 dpm/mg and the C24 ([4]; bronchi, low dose (4.2 μg i.t.)) was 48.6 dpm/mg. It also gave a C24 ([4]; esophagus, high dose (42 μg i.t.)) of 13.0 dpm/mg, a C24 ([4]; esophagus, low dose (4.2 μg i.t.)) of 8.8 dpm/mg and a C24 ([4]; heart, high dose (42 μg i.t.)) of 17.0 dpm/mg. The C24 ([4]; heart, low dose (4.2 μg i.t.)) was 3.2 dpm/mg, the “blood/plasma ratio (blood-to-serum ratio)” value ([4]; high dose (42 μg i.t.)) was 0.89 and the C24 ([4]; kidney, high dose (42 μg i.t.)) was 23.0 dpm/mg. It also gave a C24 ([4]; kidney, low dose (4.2 μg i.t.)) of 5.6 dpm/mg, a C24 ([4]; liver, high dose (42 μg i.t.)) of 22.0 dpm/mg and a C24 ([4]; liver, low dose (4.2 μg i.t.)) of 5.7 dpm/mg. For the same molecule, the “blood/plasma ratio (blood-to-serum ratio)” value ([4]; low dose (4.2 μg i.t.)) was 0.89, the C24 ([4]; lung, high dose (42 μg i.t.)) was 44.0 dpm/mg and the C24 ([4]; lung, low dose (4.2 μg i.t.)) was 6.4 dpm/mg. For the same molecule, the “AUC, high dose compared to low dose” value ([4]; muscle) was 15.7 fold, the C24 ([4]; muscle, high dose (42 μg i.t.)) was 10.0 dpm/mg and the C24 ([4]; muscle, low dose (4.2 μg i.t.)) was 3.2 dpm/mg. The C24 ([4]; pancreas, high dose (42 μg i.t.)) was 93.0 dpm/mg, the C24 ([4]; pancreas, low dose (4.2 μg i.t.)) was 29.5 dpm/mg and the “AUC, high dose compared to low dose” value ([4]; prostate) was 17.1 fold. The C24 ([4]; prostate, high dose (42 μg i.t.)) was 89.0 dpm/mg, the C24 ([4]; prostate, low dose (4.2 μg i.t.)) was 15.9 dpm/mg and the “serum AUC0–24 h, high dose compared to low dose” value ([4]; serum) was “approximately 10 fold”. The T1/2 ([4]; serum, high dose (42 μg i.t.), Table 1 prints mean (C–V%) without naming the dose) was 12 h, the C24 ([4]; serum, low dose (4.2 μg i.t.)) was 0.80 dpm/mg and the “AUC, high dose compared to low dose” value ([4]; skin) was 15.1 fold. The C24 ([4]; skin, high dose (42 μg i.t.)) was 155 dpm/mg, the C24 ([4]; skin, low dose (4.2 μg i.t.)) was 34.2 dpm/mg and the “AUC, high dose compared to low dose” value ([4]; spleen) was 16.4 fold. For the same molecule, the C24 ([4]; spleen, high dose (42 μg i.t.)) was 18.0 dpm/mg, the C24 ([4]; spleen, low dose (4.2 μg i.t.)) was 3.2 dpm/mg and the C24 ([4]; testis, high dose (42 μg i.t.)) was 6.0 dpm/mg. The C24 ([4]; testis, low dose (4.2 μg i.t.)) was 1.6 dpm/mg, the C24 ([4]; thymus, high dose (42 μg i.t.)) was 23.0 dpm/mg and the C24 ([4]; thymus, low dose (4.2 μg i.t.)) was 4.8 dpm/mg. It also gave a C24 ([4]; thyroid, high dose (42 μg i.t.)) of 72.0 dpm/mg, a C24 ([4]; thyroid, low dose (4.2 μg i.t.)) of 9.6 dpm/mg and a C24 ([4]; trachea, high dose (42 μg i.t.)) of 86.0 dpm/mg. The C24 ([4]; trachea, low dose (4.2 μg i.t.)) was 21.5 dpm/mg, the “increase of parent PCB28 concentration over the entire study time course” value ([5]; adipose tissue, high dose) was 9 fold and the “increase of parent PCB28 concentration between 200 and 720 min” value ([5]; adipose tissue, low dose) was 3 fold. For the same molecule, the “increase of parent PCB28 concentration over the entire study time course” value ([5]; adipose tissue, low dose) was 36 fold, the “peak concentration of parent compound in serum” value ([5]; high dose) was 47 dpm/mg and the “peak concentration of parent compound in serum” value ([5]; low dose) was 7.6 dpm/mg.
